These results are taken from US7563862B2, “Neural regeneration peptides and methods for their use in treatment of brain damage” (Neuren Pharmaceuticals Limited, priority 2001, dated 2009).

The experiment has as its system embryonic cortical cells. Description: haptotactic migration assay, cortical cells. Type of experiment: cell-based, rat. To be noted: 1 day in vitro. An excerpt: To test the cell adhesion and neuronal migration inducing properties of the NRPs a haptotactic migration cell assay was developed (Lu et al.,2001). For this purpose Transwell® cell culture dishes (Costar) with fitting inserts having pores therein with a 12 μm pore size were used to cultivate striatal and neocortical cells. In general, a test agent was adhered to the surface of a culture dish and an insert having pores was placed in culture medium over but not in contact with the surface of the culture dish. Test cells were placed in the inserts, and any cells migrating through the pores and onto the surface of the culture dish reflected chemattractiveness by the test molecule. Under these conditions, the surface of the culture dish would, over time, release some NRP molecules into the culture medium. It can be appreciated that the concentration of “free” NRP would be greater nearer the surface of the culture dish than at distances farther away from the culture dish, thereby creating a gradient in NRP concentration. […] By counting the number and morphology of such migrant cells, effects of NRPs on neuronal migration and differentiation can be evaluated. […]
For seeding striatal cells, 1.5 ml of Neurobasal/B27 medium was put into the culture dishes and 0.5 ml of NeurobasaVB27 medium was put into the insert. The assay was ready for cell seeding. […]

Ends that are not written are not given here.

With “SEPEARRAPGRKGGVVCASLAADW-NH2 [NRP-7 segment SW, 24-mer form of mouse NRP-7]”, the “more neurons migrated to the culture dish bottom compared to BSA control” value (15 ng immobilized, 1 pg/ml in medium) was determined as 49.8%. In addition, the “number of cells with neurite outgrowth” value (0.1 and 1 μg/ml coating in BSA) is listed as “significantly increased”.
